Results as given in US20240239788A1, “SMALL MOLECULE INHIBITORS OF KRAS G12D MUTANT” (Merck Sharp & Dohme LLC, priority 2021, published 2024).
Where a name gives a salt, the structure may show the parent alone.

Molecular target: KRAS protein containing G12D mutation (Homo sapiens (Human), UniProt P01116, G12D)
Assay: SOS-catalyzed nucleotide exchange assay (GNE), TR-FRET
Assay type: biochemical
Conditions: biotinylated KRAS G12D, SOS and GTP, 60-minute incubation
Procedure: Compounds are added to this complex and then after a 60-minute incubation time the mixture is treated with SOS and unlabeled GTP. Small molecule inhibitors stabilize the Bodipy-GDP complex whereas the untreated protein rapidly exchanges Bodipy-GDP for unlabeled GTP resulting in reduced TR-FRET signal.
This solution is referred to as biotinylated KRAS G12D stock solution.

Sequence of KRAS protein containing G12D mutation (P01116 other isoform, or with tags, fused parts or gaps G12D (already in the parent)): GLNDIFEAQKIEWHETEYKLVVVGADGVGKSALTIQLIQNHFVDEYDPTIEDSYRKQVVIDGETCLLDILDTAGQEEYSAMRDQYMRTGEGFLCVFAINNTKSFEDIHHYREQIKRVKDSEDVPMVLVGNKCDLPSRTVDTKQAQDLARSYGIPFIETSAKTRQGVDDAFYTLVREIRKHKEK

`Cc1cc(N)nc(-c2c(Cl)cc3c(N4CC5CCC(C4)N5)nc(OC[C@@]45CCCN4[C@H](CO)CC5)nc3c2F)c1C(F)(F)F` [Ex. 150] gave an IC50 of 2.04 nM.

Work on `C[C@]12CC[C@H](CN(c3nc(OC[C@@]45CCCN4C[C@H](F)C5)nc4c(F)c(-c5cc(F)cc6cccc(Cl)c56)c(F)cc34)C1)N2` [Ex. 158, 7-(8-chloro-3-fluoro-naphthalen-1-yl)-6,8-difluoro-2-(((2R,7aS)-2-fluorotetrahydro-1H-pyrrolizin-7a(5H)-yl)-methoxy)-4-((1S,5R)-1-methyl-3,8-diaza-bicyclo[3.2.1]octan-3-yl)quinazoline] yielded an IC50 of 1280 nM.

`CN1[C@@H]2CC[C@H]1CN(c1nc(OC[C@@]34CCCN3C[C@H](F)C4)nc3c(F)c(-c4cc(O)cc5cccc(Cl)c45)c(F)cc13)C2` [Ex. 161, 5-chloro-4-(6,8-difluoro-2-(((2R,7aS)-2-fluorotetrahydro-1H-pyrrolizin-7a(5H)-yl)-methoxy)-4-((1R,5S)-8-methyl-3,8-diaza-bicyclo[3.2.1]octan-3-yl)quinazolin-7-yl)-naphthalen-2-ol] showed an IC50 of 591 nM.

With `Cc1cc(-c2c(Cl)cc3c(N4C[C@H]5CC[C@@H](C4)N5)nc(OC[C@@]45CCCN4C[C@H](F)C5)nc3c2F)nc(N)c1OC(F)F` [Ex. 168, 6-(4-((1R,5S)-3,8-diazabicyclo[3.2.1]-octan-3-yl)-6-chloro-8-fluoro-2-(((2R,7aS)-2-fluorotetrahydro-1H-pyrrolizin-7a(5H)-yl)-methoxy)quinazolin-7-yl)-3-(difluorometh-oxy)-4-methylpyridin-2-amine] the IC50 was 1310 nM.

Compound `Cc1nc(N)c(C)c(-c2c(F)cc3c(N4C[C@H]5CC[C@@H](C4)N5)nc(OC[C@@]45CCCN4C[C@H](F)C5)nc3c2F)c1C1CC1` [Ex. 198, 4-(4-((1R,5S)-3,8-diazabicyclo[3.2.1]-octan-3-yl)-6,8-difluoro-2-(((2R,7aS)-2-fluorotetrahydro-1H-pyrrolizin-7a(5H)-yl)-methoxy)quinazolin-7-yl)-5-cyclopropyl-3,6-dimethylpyridin-2-amine] has an IC50 of 1790 nM.

With `C[C@]12CC[C@H](CN(c3nc(OC[C@@H]4CCCN4CCO)nc4c(F)c(-c5cc(O)cc6ccccc56)c(F)cc34)C1)N2` [Ex. 225, 4-(6,8-difluoro-2-(((S)-1-(2-hydroxyethyl)pyrrolidin-2-yl)methoxy)-4-((1S,5R)-1-methyl-3,8-diazabicyclo[3.2.1]octan-3-yl)quinazolin-7-yl)naphthalen-2-ol] the IC50 was 69.8 nM.

For `CN(CC(C)(C)O)CC1(COc2nc(N3C[C@H]4CC[C@@](C)(C3)N4)c3cc(F)c(-c4cc(O)cc5ccccc45)c(F)c3n2)CC1` [Ex. 226, 4-(6,8-difluoro-2-((1-(((2-hydroxy-2-methylpropyl)(methyl)amino)methyl)cyclopropyl)methoxy)-4-((1S,5R)-1-methyl-3,8-diazabicyclo[3.2.1]octan-3-yl)quinazolin-7-yl)naphthalen-2-ol], the IC50 was 55.1 nM.

With `NC1(COc2nc(N3CC4CCC(C3)N4)c3cc(Cl)c(-c4cc(O)cc5ccccc45)c(F)c3n2)CCC(O)C1` (centres unmarked) [Example 108, 4-(2-((1-amino-3-hydroxycyclopentyl)methoxy)-4-(3,8-diazabicyclo[3.2.1]octan-3-yl)-6-chloro-8-fluoroquinazolin-7-yl)naphthalen-2-ol, TFA] the IC50 was 3280 nM.

Work on `Oc1cc(-c2c(Cl)cc3c(N4CC5CCC(C4)N5)nc(OCC4CNC4)nc3c2F)c2ccccc2c1` [Example 109, 4-(2-(azetidin-3-ylmethoxy)-4-(3,8-diazabicyclo[3.2.1]octan-3-yl)-6-chloro-8-fluoroquinazolin-7-yl)naphthalen-2-ol, TFA] yielded an IC50 of 2680 nM.

Work on `Oc1cc(-c2c(Cl)cc3c(N4CC5CCC(C4)N5)nc(OCC4(F)CNC4)nc3c2F)c2ccccc2c1` [Example 110, 4-(4-(3,8-diazabicyclo [3.2.1]octan-3-yl)-6-chloro-8-fluoro-2-((3-fluoroazetidin-3-yl)methoxy)quinazolin-7-yl)naphthalen-2-ol, TFA] yielded an IC50 of 770 nM.

Work on `NC1(COc2nc(N3CC4CCC(C3)N4)c3cc(Cl)c(-c4cc(O)cc5ccccc45)c(F)c3n2)CCOC1` (centres unmarked) [Example 111, 4-(2-((3-amino-tetrahydrofuran-3-yl)methoxy)-4-(3,8-diazabicyclo[3.2.1]octan-3-yl)-6-chloro-8-fluoroquinazolin-7-yl) naphthalen-2-ol, TFA] yielded an IC50 of 2470 nM.

For `NC1(COc2nc(N3CC4CCC(C3)N4)c3cc(Cl)c(-c4cc(O)cc5ccccc45)c(F)c3n2)CCCC1` [Example 112, 4-(2-((1-aminocyclo-pentyl)methoxy)-4-(3,8-diazabicyclo[3.2.1]octan-3-yl)-6-chloro-8-fluoroquinazolin-7-yl)naphthalen-2-ol, TFA], the IC50 was 2730 nM.

`C[C@]12CC[C@H](CN(c3nc(OCC4(N)CCOC4)nc4c(F)c(-c5cc(O)cc6ccccc56)c(F)cc34)C1)N2` (stereo partly drawn) [Example 113, 4-(2-((3-amino-tetrahydrofuran-3-yl)methoxy)-6,8-difluoro-4-((1S,5R)-1-methyl-3,8-diazabicyclo [3.2.1]octan-3-yl)quinazolin-7-yl)naphthalen-2-ol, TFA] showed an IC50 of 697 nM.

For `C[C@]12CC[C@H](CN(c3nc(OCC4(N)CCC4)nc4c(F)c(-c5cc(O)cc6ccccc56)c(F)cc34)C1)N2` [Example 114, 4-(2-((1-aminocyclobutyl)methoxy)-6,8-difluoro-4-((1S,5R)-1-methyl-3,8-diazabicyclo[3.2.1]octan-3-yl)quinazolin-7-yl)naphthalen-2-ol, TFA], the IC50 was 794 nM.

In the case of `C[C@]12CC[C@H](CN(c3nc(OC[C@H]4CCN(C5CCCCC5O)C4)nc4c(F)c(-c5cc(O)cc6ccccc56)c(Cl)cc34)C1)N2` (stereo partly drawn) [Example 120, 4-(6-chloro-8-fluoro-2-(((3S)-1-(2-hydroxy-cyclohexyl)pyrrolidin-3-yl)methoxy)-4-((1S,5R)-1-methyl-3,8-diazabicyclo [3.2.1]octan-3-yl)quinazolin-7-yl)naphthalen-2-ol, TFA], the IC50 is reported as 1440 nM.

`C#Cc1cccc2cc(O)cc(-c3c(F)cc4c(N5CC6(C)CCC(C)(C5)N6)nc(OC[C@@]56CCCN5C[C@H](F)C6)nc4c3F)c12` [Example 124, 4-(4-(1,5-dimethyl-3,8-diazabicyclo[3.2.1]octan-3-yl)-6,8-difluoro-2-(((2R,7aS)-2-fluorotetrahydro-1H-pyrrolizin-7a(5H)-yl)methoxy)quinazolin-7-yl)-5-ethynylnaphthalen-2-ol] showed an IC50 of 1.21 nM.

`C#Cc1cccc2cc(O)cc(-c3c(F)cc4c(N5C[C@]6(C)CC[C@](F)(C5)N6)nc(OC[C@@]56CCCN5C[C@H](F)C6)nc4c3F)c12` [compound 240, 4-(6,8-difluoro-4-((18,5S)-1-fluoro-5-methyl-3,8-diazabicyclo[3.2.1]octan-3-yl)-2-(((2R,7aS)-2-fluorotetrahydro-1H-pyrrolizin-7a(5H)-yl)methoxy)quinazolin-7-yl)-5-ethynylnaphthalen-2-ol] was tested, and the IC50 was 135 nM.
